Key:
human lung fibroblasts = assay: bFGF/TGFβ proliferation of human lung fibroblasts (viable cell number); assay type: cell-based; details: 48 h
Excerpt: Experiments described in the current Example and Example 14 involved culture of human parenchymal fibroblasts, measurement of their proliferation and gene expression response, the methods for which are detailed in Schuliga et al 2009 (Am J Respir Cell Mol Biol. 2009; 41(6):731-41). Interaction between TGFβ and bFGF in human lung fibroblasts. […] An interaction previously characterized in airway smooth muscle cultures is that TGFβ reduces the proliferative effects of bFGF. A similar finding is observed in human lung fibroblasts, whereby TGFβ reduces the bFGF mitogenic effects.

[1] = system: glucocorticoid response element (GRE) activity; assay: GRE activity / GRE reporter in BEAS-2B cells; assay type: cell-based, human; details: BEAS-2B cells; RV16 0.1 or 1.0 MOI; SB431542 1 μM
Protocol: Data are presented as the means and SEM of 3 independent experiments. *P<0.05, cf corresponding Dex 30 nM response.
(§1) The methods used in Examples 1 to 5 (and 10, 19, 20) are similar to those reported in Salem et al 2012 (Br J Pharmacol. 166:2036-2048) and again in Keenan et al 2014 (Respiratory Research, e15:55) in which methods for cell culture, GRE assays and gene expression measurements are fully described. Additional methods for growth of respiratory syncytial virus (RSV) and rhinovirus (RV) are described in Collins et al 2007 (Respir Physiol Neurobiol. 2007 Jun. 15; 156(3):345-52.) and by Xatzipsalti and papdopoulos, 2007 (Contrib Microbiol. 2007; 14:33-41).

[2] = system: GRE-dependent gene expression; assay: Glucocorticoid-induced gene expression in BEAS-2B cells; assay type: cell-based, human
Excerpt: as §1
Data are presented as the means and SEM of 4 independent experiments. *P<0.05, cf corresponding Dex 30 nM response. […] Thus, TNFα contribution to glucocorticoid resistance, may be independent of TGFβ. The resistance is exemplified by the epithelial sodium channel alpha subunit SCNN1a which assembles into a Na channel that is thought to contribute to water reabsorption from the airspaces that are flooded during acute lung injury.
TGFβ suppression ranged in magnitude amongst the genes selected for analysis. […] TGFβ and Dex synergise in increasing the expression of PAI-1 (FIG. 24B).

RSV = assay: 5 day model of RSV infection, treatments from day 1; assay type: in vivo, mice; details: administered from day 1
CK1ε = CK1ε (Homo sapiens, UniProt P49674); assay: CK1ε inhibition (IC50); assay type: biochemical
Chain of CK1ε (P49674 whole entry): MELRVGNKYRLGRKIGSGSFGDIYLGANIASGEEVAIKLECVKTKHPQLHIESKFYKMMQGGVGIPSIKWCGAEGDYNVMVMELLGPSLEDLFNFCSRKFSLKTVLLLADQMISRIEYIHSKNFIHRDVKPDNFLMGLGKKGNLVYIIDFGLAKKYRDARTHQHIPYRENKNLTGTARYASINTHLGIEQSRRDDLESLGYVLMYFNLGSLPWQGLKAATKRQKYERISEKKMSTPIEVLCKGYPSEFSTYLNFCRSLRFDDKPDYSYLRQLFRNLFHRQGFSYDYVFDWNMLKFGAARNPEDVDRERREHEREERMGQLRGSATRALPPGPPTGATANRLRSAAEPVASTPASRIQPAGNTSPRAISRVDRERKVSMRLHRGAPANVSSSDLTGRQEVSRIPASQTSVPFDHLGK

ALK5 = biological target: T1, ALK5 (Homo sapiens, UniProt P36897); assay: ALK5 inhibition (IC50); assay type: biochemical
T1 sequence (P36897 34-503): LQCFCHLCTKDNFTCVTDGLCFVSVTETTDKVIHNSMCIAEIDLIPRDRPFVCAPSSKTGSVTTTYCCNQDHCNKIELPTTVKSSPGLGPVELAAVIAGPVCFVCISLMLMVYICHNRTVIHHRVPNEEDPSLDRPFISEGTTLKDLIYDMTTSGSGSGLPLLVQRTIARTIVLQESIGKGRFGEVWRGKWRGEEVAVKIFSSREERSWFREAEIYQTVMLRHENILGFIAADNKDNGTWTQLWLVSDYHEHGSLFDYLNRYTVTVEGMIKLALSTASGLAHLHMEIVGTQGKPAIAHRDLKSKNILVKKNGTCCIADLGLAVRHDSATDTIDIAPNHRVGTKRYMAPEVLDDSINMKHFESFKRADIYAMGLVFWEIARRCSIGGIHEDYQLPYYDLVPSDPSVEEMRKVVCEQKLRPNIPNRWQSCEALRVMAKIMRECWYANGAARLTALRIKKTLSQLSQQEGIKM

[3] = FIG. 6A, BEAS-2B, SB431542 1 μM, PF670462 10 μM
[4] = human lung fibroblasts, PF4800567 1.0 μM

| SMILES | effect of TGFβ on bFGF mitogenesis (human lung fibroblasts; human lung fibroblasts from donors without IPF, viable cell number) | impairment of Dexamethasone 30 nM GRE responses by Rhinovirus (RV16) infection [1] | suppression of Dex (30 nM) gene expression response (SCNN1a) induced by IL-13/IL-4 ([2]; BEAS-2B cells, IL-13/IL-4 at 10 ng/ml, PF670462 1 or 10 μM, SB431542 1 μM) | impairment of Dexamethasone 30 nM GILZ gene expression responses by RV16 infection ([2]; BEAS-2B cells, RV16 1.0 MOI, pretreatment) | suppression of Dex (30 nM) gene expression response (SCNN1a) induced by the combination TNFα, IL-13 and IL-4 ([2]; BEAS-2B cells, each at 0.1 ng/ml, PF670462 1 or 10 μM, SB431542 1 μM) | TGFβ suppression of glucocorticoid-induced CDKN1C (p57kip2) expression ([2]; BEAS-2B, Dex 100 nM, PF670462 1-10 μM) | levels of GILZ in RV infected cells [2, 3] | levels of GILZ in uninfected cells [2, 3] | RV infection-induced decrease of Dex-induced GILZ expression ([2]; FIG. 6B, BEAS-2B, SB431542 3 μM, PF670462 3 μM) | accumulation of inflammatory cells in the BAL fluid (RSV) | IC50 (CK1ε) [µM] | bFGF induced mitogenesis (human lung fibroblasts; [4]) | bFGF induced mitogenesis in the presence of TGFβ (human lung fibroblasts; [4]) | IC50 (ALK5) [µM] |
| --- | --- | --- | --- | --- | --- | --- | --- | --- | --- | --- | --- | --- | --- | --- |
| NC(=O)c1ccc(-c2nc(-c3ccc4c(c3)OCO4)c(-c3ccccn3)[nH]2)cc1 [SB431542] | able to block | prevented | some impact | greatly diminished | no detectable effect | completely blocked | increased | but not in uninfected cells | prevented | – | – | – | – | – |
| O=C(NC1CCOCC1)c1ccc(-c2cc(-c3c[nH]nc3-c3ccccn3)ccn2)cc1 [GW788388] | – | – | – | – | – | – | – | – | – | no activity | 18.6 | – | – | – |
| Nc1ncnc2c1c(COc1cccc(Cl)c1)nn2C1CCOCC1 [PF4800567] | – | – | – | – | – | – | – | – | – | – | 0.011 | reduced | remained suppressed | 4.13 |

— patent publication US11975005B2, “Treatment of respiratory diseases” (TIANLI BIOTECH PTY LTD, priority 2015, dated 2024)
